Where “and” joins values, the source holds several entries; their conditions need not be identical. Equal entries are not always repeated.
[Br][Gd]([Br])[Br] [gadolinium bromide (GdBr3)]
Settings	vapor or sublimation pressure
895 K, Crystal	3.31e-05 kPa
910 K, Crystal	4.17e-05 kPa
914 K, Crystal	6.31e-05 kPa
917 K, Crystal	7.76e-05 kPa
919 K, Crystal	8.91e-05 kPa
920 K, Crystal	7.76e-05 kPa
926 K, Crystal	0.000112 kPa
928 K, Crystal	7.76e-05 kPa
929 K, Crystal	0.000105 kPa
932 K, Crystal	0.000138 kPa
934 K, Crystal	0.000135 kPa
937 K, Crystal	0.000166 kPa
941 K, Crystal	0.00017 kPa
945 K, Crystal	0.000155 kPa and 0.000204 kPa
947 K, Crystal	0.000234 kPa
951 K, Crystal	0.000251 kPa and 0.000141 kPa
953 K, Crystal	0.000324 kPa
956 K, Crystal	0.000282 kPa and 0.000302 kPa
957 K, Crystal	0.000331 kPa and 0.000224 kPa
959 K, Crystal	0.000324 kPa
962 K, Crystal	0.000447 kPa
964 K, Crystal	0.000398 kPa
965 K, Crystal	0.000389 kPa
967 K, Crystal	0.000468 kPa
968 K, Crystal	0.000324 kPa and 0.000282 kPa
969 K, Crystal	0.000468 kPa and 0.000575 kPa
971 K, Crystal	0.00049 kPa
973 K, Crystal	0.00055 kPa
974 K, Crystal	0.00055 kPa
977 K, Crystal	0.000759 kPa
979 K, Crystal	0.000468 kPa and 0.000676 kPa and 0.000427 kPa
980 K, Crystal	0.000759 kPa
981 K, Crystal	0.000708 kPa
983 K, Crystal	0.000794 kPa
984 K, Crystal	0.000562 kPa
986 K, Crystal	0.000891 kPa
987 K, Crystal	0.001 kPa
988 K, Crystal	0.000933 kPa
989 K, Crystal	0.000708 kPa
990 K, Crystal	0.00107 kPa and 0.000617 kPa and 0.00115 kPa
993 K, Crystal	0.0011 kPa
994 K, Crystal	0.0011 kPa
996 K, Crystal	0.00123 kPa
997 K, Crystal	0.00145 kPa
999 K, Crystal	0.00102 kPa and 0.00155 kPa
1000 K, Crystal	0.00138 kPa
1001 K, Crystal	0.00155 kPa
1002 K, Crystal	0.000912 kPa
1003 K, Crystal	0.00148 kPa
1004 K, Crystal	0.00158 kPa
1006 K, Crystal	0.00162 kPa
1008 K, Crystal	0.00141 kPa and 0.002 kPa
1011 K, Crystal	0.00219 kPa and 0.002 kPa
1012 K, Crystal	0.00195 kPa
1014 K, Crystal	0.00245 kPa and 0.00219 kPa and 0.00135 kPa
1015 K, Crystal	0.0017 kPa and 0.00219 kPa
1018 K, Crystal	0.00191 kPa and 0.00275 kPa
1019 K, Crystal	0.00251 kPa
1020 K, Crystal	0.00288 kPa
1023 K, Crystal	0.00219 kPa and 0.00275 kPa
1025 K, Crystal	0.00302 kPa
1026 K, Crystal	0.002 kPa and 0.00347 kPa
1029 K, Crystal	0.00372 kPa and 0.00275 kPa
1030 K, Crystal	0.00363 kPa
1032 K, Crystal	0.00295 kPa and 0.00372 kPa
1034 K, Crystal	0.00398 kPa
1035 K, Crystal	0.00339 kPa
1036 K, Crystal	0.00468 kPa
1041 K, Crystal	0.00513 kPa and 0.00316 kPa
1043 K, Crystal	0.00513 kPa
1045 K, Crystal	0.00575 kPa
1049 K, Crystal	0.00661 kPa and 0.00417 kPa
1051 K, Crystal	0.00661 kPa
1057 K, Crystal	0.00776 kPa and 0.00832 kPa and 0.00525 kPa
1060 K, Liquid	0.00646 kPa
1067 K, Liquid	0.00933 kPa
1073 K, Liquid	0.00851 kPa
1074 K, Liquid	0.00741 kPa
1078 K, Liquid	0.012 kPa
1085 K, Liquid	0.0117 kPa
1087 K, Liquid	0.0145 kPa
1091 K, Liquid	0.0115 kPa
1096 K, Liquid	0.0158 kPa
1098 K, Liquid	0.0191 kPa
1099 K, Liquid	0.0138 kPa
1105 K, Liquid	0.0204 kPa
1108 K, Liquid	0.0178 kPa and 0.0234 kPa
1114 K, Liquid	0.024 kPa
1119 K, Liquid	0.0229 kPa and 0.0302 kPa
1123 K, Liquid	0.0282 kPa
1128 K, Liquid	0.0372 kPa
1130 K, Liquid	0.0302 kPa
1138 K, Liquid	0.0468 kPa
1140 K, Liquid	0.0427 kPa and 0.038 kPa
1148 K, Liquid	0.0513 kPa
1150 K, Liquid	0.049 kPa and 0.0617 kPa
1155 K, Liquid	0.0617 kPa
1159 K, Liquid	0.0589 kPa
1161 K, Liquid	0.0794 kPa
1168 K, Liquid	0.0708 kPa
1169 K, Liquid	0.0912 kPa
1179 K, Liquid	0.0912 kPa

[I][Gd]([I])[I] [gadolinium triiodide]
Crystal
Settings	vapor or sublimation pressure
890 K	4.47e-05 kPa
891 K	5.62e-05 kPa
901 K	6.76e-05 kPa and 8.32e-05 kPa and 5.62e-05 kPa
905 K	8.51e-05 kPa
911 K	0.000112 kPa
912 K	8.91e-05 kPa
913 K	0.000112 kPa
914 K	0.000138 kPa and 8.91e-05 kPa
916 K	0.000112 kPa
918 K	0.000135 kPa
919 K	0.000155 kPa
920 K	0.000112 kPa
922 K	0.000178 kPa
924 K	0.000123 kPa
925 K	0.000178 kPa
927 K	0.000174 kPa and 0.000151 kPa
928 K	0.000145 kPa and 0.000195 kPa and 0.000209 kPa
929 K	0.000234 kPa
933 K	0.000191 kPa
934 K	0.000269 kPa
936 K	0.0002 kPa
937 K	0.000282 kPa and 0.000251 kPa
938 K	0.000324 kPa
939 K	0.000295 kPa
942 K	0.000347 kPa and 0.000269 kPa
943 K	0.000245 kPa
944 K	0.000355 kPa
946 K	0.000398 kPa
947 K	0.000389 kPa
948 K	0.000372 kPa
951 K	0.000331 kPa
952 K	0.00049 kPa
954 K	0.000417 kPa
955 K	0.000525 kPa and 0.000603 kPa
957 K	0.000575 kPa and 0.000457 kPa
959 K	0.000447 kPa
962 K	0.000708 kPa
964 K	0.000794 kPa
966 K	0.000575 kPa and 0.000794 kPa and 0.000631 kPa
967 K	0.000724 kPa
970 K	0.000912 kPa
973 K	0.00107 kPa
974 K	0.00102 kPa
975 K	0.00107 kPa and 0.000891 kPa
978 K	0.000832 kPa and 0.00107 kPa
979 K	0.00126 kPa
983 K	0.00135 kPa and 0.00115 kPa
984 K	0.00145 kPa
985 K	0.00158 kPa
987 K	0.00162 kPa
988 K	0.00115 kPa
990 K	0.00155 kPa
992 K	0.00174 kPa and 0.00141 kPa
993 K	0.00191 kPa and 0.00204 kPa
995 K	0.00214 kPa
997 K	0.00138 kPa
1002 K	0.00251 kPa and 0.00219 kPa
1003 K	0.00269 kPa
1006 K	0.00191 kPa
1011 K	0.00331 kPa and 0.00282 kPa
1012 K	0.00355 kPa
1019 K	0.00339 kPa
1021 K	0.00389 kPa
1023 K	0.00676 kPa
1026 K	0.00407 kPa
1033 K	0.00871 kPa and 0.00537 kPa
1040 K	0.00603 kPa
1042 K	0.00692 kPa
1045 K	0.0126 kPa
1052 K	0.00871 kPa
1054 K	0.00977 kPa
1055 K	0.017 kPa
1064 K	0.0219 kPa
1066 K	0.0135 kPa and 0.0145 kPa
1074 K	0.0302 kPa
1076 K	0.0209 kPa
1082 K	0.0214 kPa
1083 K	0.0398 kPa
1086 K	0.0282 kPa
1094 K	0.0537 kPa
1097 K	0.0372 kPa
1102 K	0.0676 kPa

[Cl-].[Cl-].[Cl-].[Gd+3] [gadolinium(III) chloride]
Liquid
Settings	vapor or sublimation pressure
930 K	3.31e-05 kPa
952 K	6.76e-05 kPa
957 K	8.32e-05 kPa
958 K	6.31e-05 kPa
965 K	7.76e-05 kPa
970 K	0.000129 kPa
973 K	9.77e-05 kPa
983 K	0.000141 kPa and 0.000178 kPa
994 K	0.000195 kPa
996 K	0.000224 kPa
1002 K	0.000324 kPa
1004 K	0.000251 kPa
1011 K	0.000331 kPa
1015 K	0.000355 kPa
1022 K	0.000562 kPa
1023 K	0.000479 kPa
1024 K	0.00049 kPa
1042 K	0.000794 kPa
1044 K	0.001 kPa
1046 K	0.001 kPa
1052 K	0.00102 kPa
1054 K	0.00141 kPa
1061 K	0.00135 kPa
1062 K	0.00138 kPa
1071 K	0.00174 kPa
1076 K	0.00219 kPa
1082 K	0.00234 kPa
1086 K	0.00269 kPa
1090 K	0.00275 kPa
1091 K	0.00339 kPa
1093 K	0.00302 kPa
1099 K	0.00339 kPa
1103 K	0.00437 kPa
1107 K	0.00417 kPa
1113 K	0.00575 kPa
1116 K	0.00513 kPa
1117 K	0.00603 kPa
1120 K	0.00589 kPa and 0.00603 kPa
1126 K	0.00759 kPa and 0.00661 kPa
1134 K	0.00871 kPa
1135 K	0.00794 kPa
1138 K	0.00977 kPa
1144 K	0.01 kPa
1147 K	0.0129 kPa
1151 K	0.0126 kPa
1154 K	0.0132 kPa
1156 K	0.0158 kPa
1165 K	0.0182 kPa
1170 K	0.0219 kPa
1177 K	0.024 kPa
1187 K	0.0324 kPa
1190 K	0.0316 kPa
1203 K	0.0407 kPa
1213 K	0.0501 kPa

From the NIST ThermoML archive (doi:10.1021/je020189p)
